Measurements as given in patent publication US11667630B2, “Nitrogen-containing 6-membered cyclic compound” (Asahi Kasei Pharma Corporation, priority 2017, dated 2023).

Test system: rat femur
Assay: Neo-osteogenesis action in rat femur
Format: in vivo
Details: female SD rats, one week after administration
Description: Eight weeks old female SD rats (Charles River Japan) were fixed in the side lying position under triple anesthesia (medetomidine hydrochloride, midazolam, and butorphanol tartrate). After hair of the left femoral region was shaved with a hair clipper, and disinfection treatment was performed with 70% ethanol, an in situ-solidified gel solution of a test compound, specifically, a test compound dissolved in poly(lactic-co-glycolic acid) (RESOMER RG502H, produced by Evonik Industries)/poly(lactic-co-glycolic acid)-polyethylene glycol block copolymer (5050 DLG mPEG 5000, produced by Lakeshore Biomaterials)/N-methyl-2-pyrroridone (produced by Wako) (weight ratio 47%/3%/50%), was filled in a 1-mL syringe, a 21G injection needle was attached to the syringe, and the needle was transdermally stabbed from the quadriceps to the periosteum near the center of the femoral diaphyseal. Then, 100 μg as the amount of the test compound, or 50 μL as the administration volume of the solution was injected between the quadriceps and the periosteum, and the injection needle was drawn out. To the rats of the control group, the aforementioned in situ-solidified gel solution alone was administered. One week after the administration of the drug solution, the triple anesthesia was given to the animals, and they were fixed in the supine position, and euthanized by bleeding. […], circumferential tissues such as muscles were removed, the bone mineral content of the whole femur was measured by using a bone mineral analyzer DCS-600EX (produced by ALOKA), then it was divided into three portions along the long axis, and the bone mineral content of the center part (diaphysis) was evaluated. The test was performed with the groups each consisting of 6 animals.

O=C(O)c1ccc(CCN2C(=O)SCCN2CC[C@@H](O)Cc2cccc(C#Cc3ccsc3)c2)s1 [Example 23, (S)-5-(2-(4-(3-Hydroxy-4-(3-(thiophen-3-ylethynyl)phenyl)butyl)-2-oxo-1,3,4-thiadiazinan-3-yl)ethyl)thiophene-2-carboxylic acid]
Bone mineral content of femur 1/3 center region (mg) Left femur (administered with compound) (100 μg test compound in in situ-solidified gel solution injected between quadriceps and periosteum): 82.7 ± 6.7 mg | Bone mineral content of femur 1/3 center region (mg) Right femur (no administration of compound) (contralateral femur, 100 μg test compound given at left femur): 58.9 ± 2.9 mg
